The results in this text go back to patent publication US20150175585A1, “FUSED QUINONIC COMPOUNDS” (CENTRO ATLANTICO DEL MEDICAMENTO S.A (CEAMED, S.A.), priority 2012, published 2015).

Some results are limits rather than exact numbers.

Experiment [1] relates to STAT3. Nature of the experiment: IL-6 induced STAT3 phosphorylation in T47D cells (Western immunoblotting). To be noted: serum deprived T47D cells; 5 μM for 0.5-3 h or 0.5-10 μM; IL-6 25 ng/ml 30 min. In kind it is cell-based, human. The method, then:
FIG. 2. • Overnight serum deprived T47D cells were stimulated with IL-6 (25 ng/ml) for 3, 5, 10, 20, 30, 45 and 60 min. JAK2, pYJAK2, STAT3 and pYSTAT3 were detected using Western immunoblotting as described in methods. B) Overnight serum derived T47D cells were pre-incubated with compound 4 (C4) (5 μM) for 0.5, 1, 2, and 3 h and stimulated with 25 ng/ml for 30 min. JAK2, pYJAK2, STAT3 and pYSTAT3 were detected using Western immunoblotting as described in methods. C) Overnight serum derived T47D cells were preincubated with C4 at increasing concentrations (0.5-10 μM) for 3 h and stimulated with 25 ng/ml IL-6 for 30 min. JAK2, pJAK2, STAT5 and pSTAT5 were detected using Western immunoblotting as described above. Equal protein loading was confirmed using a specific human anti-β-actin antibody. C—Veh: T47D cells exposed to C4 and IL-6 vehicle (0.1% DMSO and PBS, respectively) for the indicated times. C+: T47D cells exposed to C4 vehicle (0.1% DMSO) and stimulated with IL-6 (25 ng/ml) for the indicated time.
T47D cells were routinely maintained in 75-cm^2 culture flasks with vented caps at 37° C., 5% CO2 in RPMI 1640 growth media without phenol red supplemented with 10% FBS, 2 mM L-glutamine, 10 mM HEPES, 50 U/ml penicillin/50 U/ml streptomycin, and 0.3 mg/ml gentamicin. […]
A general note: In western blotting, separated proteins are transferred to a membrane and probed.

Experiment [2] relates to HEL cells. Kind of experiment: HEL-based MTT cell viability assay. On the set-up: species or system human. To be noted: Homo sapiens, 48 h, read-out: Activity (IC50, reduction of cell viability).
Experiment [3] has as its system K562 cells. Nature of the experiment: K562-based MTT cell viability assay. Also on record: species or system human. Particulars: Homo sapiens, 48 h, read-out: Activity (IC50, reduction of cell viability). The method, then:
Cell viability was assayed by measuring the mitochondrial reduction of the tetrazolium salt 3-(4,5-methyltiazol-2yl)-2,5diphenyl-tetrazolium bromide] (MTT) (Applichen; A2231,0010) (Mosmann T. J Immunol Methods. 1983 16; 65(1-2):55-63; Chuan Y-C et al 2010. Oncogene. 29 (10), 1531-1542. Cells were seeded in 96-well plates in medium supplemented with 10% FBS (Lonza Cat. No: 14-502F), 2 mM L-Glut (Lonza Cat. No: BE17-605E) and 100 U/ml PEST (Lonza Cat. No: DE17-605E) at a cell density of 5000-20000 cells/well. Cells were seeded at a density according to their exponential growth phase. Vehicle (0.05% DMSO) or drug were added to culture medium at the indicated concentrations (10 to 0.01 microM) during 48 h. Then, MTT (0.3 mg/ml) was added to cells following by incubation for 2-4 h at 37° C. in the dark. The medium was then discarded and the formazan precipitate was solubilized by addition of 20% SDS (Sigma; L-5750) in 0.02N HCl (Panreac; 131020.1611) for 12-16 h. The optical density was measured at 595 nm with the iMark Microplate Reader (BioRad, USA). Data was expressed as percent growth above the level in controls and the results in figures were plotted as means±SEM of each test point from 3 replicates.
Statistical analysis. The concentration of drug that provokes 50% reduction of cell viability (IC50) was determined by using non-linear regression analysis and data were fitted to a log concentration vs normalized response curve in GraphPad software v5 (San Diego, Calif.).
Background: Formazan colour is commonly taken as a measure of viable cells.

`N#Cc1ccc(C2C3=C(CCCC3=O)OC3=C2C(=O)c2ccccc2C3=O)cc1` (stereo not drawn) [Compound 4, 4-(1,6,11-trioxo-2,3,4,6,11,12-hexahydro-1H-benzo[b]xanthen-12-yl)benzonitrile]: in experiment [1], the “IL-6-induced STAT3 phosphorylation” value is given as “inhibits, in a time/dose dependent manner”. In addition, the IC50 – broadly, the concentration at which inhibition is half-maximal – is less than 3 µM in experiment [2] and less than 1 µM in experiment [3].
